Laboratory results from US9738655B2, “Tetrahydroisoquinolines containing substituted azoles as factor XIa inhibitors” (BRISTOL-MYERS SQUIBB COMPANY, priority 2013, dated 2017).
Counter-ions that a name gives are not always drawn.

What follows are molecules tested against purified human Factor XIa (Homo sapiens (Human), UniProt P03951) (assay: Factor XIa enzyme inhibition assay (chromogenic substrate S-2366)). Settings: not given.
Chain of purified human Factor XIa (P03951 388-625): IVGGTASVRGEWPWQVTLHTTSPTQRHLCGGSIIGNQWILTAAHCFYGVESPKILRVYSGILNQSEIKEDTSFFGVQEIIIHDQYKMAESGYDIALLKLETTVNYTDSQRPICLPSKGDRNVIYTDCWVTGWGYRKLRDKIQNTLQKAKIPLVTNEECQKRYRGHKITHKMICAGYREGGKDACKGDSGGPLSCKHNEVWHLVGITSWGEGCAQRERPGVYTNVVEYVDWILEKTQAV
Chain of purified human Factor XIa (P03951 19-387 partner): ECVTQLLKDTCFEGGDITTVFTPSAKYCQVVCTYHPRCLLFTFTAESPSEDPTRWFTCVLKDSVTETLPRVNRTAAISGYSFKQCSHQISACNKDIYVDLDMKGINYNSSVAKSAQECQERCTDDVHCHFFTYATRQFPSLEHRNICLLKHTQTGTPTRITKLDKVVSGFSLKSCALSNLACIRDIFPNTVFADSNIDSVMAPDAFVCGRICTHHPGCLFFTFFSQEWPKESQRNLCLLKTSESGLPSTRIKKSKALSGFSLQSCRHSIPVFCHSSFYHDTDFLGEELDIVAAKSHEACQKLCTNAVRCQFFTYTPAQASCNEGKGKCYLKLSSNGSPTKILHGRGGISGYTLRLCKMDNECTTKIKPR

Row | Ki [nM] | Molecule
1 | < 5 | COc1ncc(-c2cccc3c2CCN(C(=O)c2cn(-c4cccc(Cl)c4F)nn2)C3C(=O)Nc2ccc(C(=O)O)cc2)c(OC)n1 (stereo not shown) [Example 158, 4-(2-(1-(3-chloro-2-fluorophenyl)-1H-1,2,3-triazole-4-carbonyl)-5-(2,4-dimethoxypyrimidin-5-yl)-1,2,3,4-tetrahydroisoquinoline-1-carboxamido)benzoic acid]

Same assay, conditions: read-out: Factor XIa Ki; measured at 25° C.

Row | Molecule | Ki [nM]
2 | 4-(2-(1-(3-chloro-2- fluorophenyl)-5-hydroxy- 1H-pyrazole-4-carbonyl)-5- (4-methylpiperazin-1-yl)- 1,2,3,4- tetrahydroisoquinoline-1- carboxamido)benzoic acid, 2 TFA salt. [Example 214] | 713
3 | O=C(O)c1ccc(NC(=O)C2c3cccc(N4CCOCC4=O)c3CCN2C(=O)[C@H]2CC(c3cccc(Cl)c3F)=NO2)cc1 (stereo in doubt) [Example 290, 4-((S)-2-((R)-3-(3-chloro-2-fluorophenyl)-4,5-dihydroisoxazole-5-carbonyl)-5-(3-oxomorpholino)-1,2,3,4-tetrahydroisoquinoline-1-carboxamido)benzoic acid] | 13.4
4 | O=C(O)c1ccc(NC(=O)[C@H]2c3ccccc3CCN2C(=O)c2cn(-c3cccc(Cl)c3F)nn2)cc1 [Example 2, (R)-4-(2-(1-(3-Chloro-2-fluorophenyl)-1H-1,2,3-triazole-4-carbonyl)-1,2,3,4-tetrahydroisoquinoline-1-carboxamido)benzoic acid] | 5580
5 | Nc1cc(-c2cccc3c2CCN(C(=O)c2cn(-c4cccc(Cl)c4F)nn2)C3C(=O)Nc2ccc(C(=O)O)cc2)ccn1 (stereo not shown) [Example 38, 4-(5-(2-aminopyridin-4-yl)-2-(1-(3-chloro-2-fluorophenyl)-1H-1,2,3-triazole-4-carbonyl)-1,2,3,4-tetrahydroisoquinoline-1-carboxamido)benzoic acid, bis-TFA salt] | < 5
6 | O=C(O)c1ccc(NC(=O)C2c3cccc(-c4ccc5c(c4)CCNC5)c3CCN2C(=O)c2cn(-c3cccc(Cl)c3F)nn2)cc1 (stereo not shown) [Example 40, 4-(2-(1-(3-chloro-2-fluorophenyl)-1H-1,2,3-triazole-4-carbonyl)-1,1′,2,2′,3,3′,4,4′-octahydro-[5,6′-biisoquinoline]-1-carboxamido)benzoic acid, TFA salt] | < 5
7 | CN1CCC(=O)N(c2cccc3c2CCN(C(=O)c2cnn(-c4cccc(Cl)c4F)c2)C3C(=O)Nc2ccc(C(=O)O)cc2)CC1 (stereo not shown) [Example 70, 4-(2-(1-(3-chloro-2-fluorophenyl)-1H-pyrazole-4-carbonyl)-5-(4-methyl-7-oxo-1,4-diazepan-1-yl)-1,2,3,4-tetrahydroisoquinoline-1-carboxamido)benzoic acid, TFA salt] | 29.3
8 | O=C(O)c1ccc(NC(=O)[C@H]2c3cccc(N4CCC(O)CC4)c3CCN2C(=O)c2cn(-c3cccc(Cl)c3F)nn2)cc1 [Example 87, (R)-4-(2-(1-(3-chloro-2-fluorophenyl)-1H-1,2,3-triazole-4-carbonyl)-5-(4-hydroxypiperidin-1-yl)-1,2,3,4-tetrahydroisoquinoline-1-carboxamido)benzoic acid, TFA salt] | 43
9 | O=C(O)c1ccc(NC(=O)C2c3cccc(NCCO)c3CCN2C(=O)c2cn(-c3cccc(Cl)c3F)nn2)cc1 (stereo not shown) [Example 111, 4-(2-(1-(3-Chloro-2-fluorophenyl)-1H-1,2,3-triazole-4-carbonyl)-5-((2-hydroxyethyl)amino)-1,2,3,4-tetrahydroisoquinoline-1-carboxamido)benzoic acid, TFA salt] | 6.04
10 | O=C(N[C@H]1CC[C@@H](C(=O)O)CC1)C1c2cccc(-c3cncnc3)c2CCN1C(=O)c1cn(-c2cccc(Cl)c2F)nn1 (stereo partly drawn) [Example 133, (1R,4R)-4-(2-(1-(3-chloro-2-fluorophenyl)-1H-1,2,3-triazole-4-carbonyl)-5-(pyrimidin-5-yl)-1,2,3,4-tetrahydroisoquinoline-1-carboxamido) cyclohexanecarboxylic acid] | 12.6
11 | COC(=O)C12CCC(NC(=O)C3c4cccc(-c5cncnc5)c4CCN3C(=O)c3cn(-c4cccc(Cl)c4F)nn3)(CC1)CC2 (stereo not shown) [Example 142, Methyl 4-(2-{[1-(3-chloro-2-fluorophenyl)-1H-1,2,3-triazol-4-yl]carbonyl}-5-(pyrimidin-5-yl)-1,2,3,4-tetrahydroisoquinoline-1-amido)bicyclo[2.2.2]octane-1-carboxylate, TFA salt] | 56.2
12 | COC1CCN(c2cccc3c2CCN(C(=O)c2sc(-c4cccnc4)nc2C)C3C(=O)Nc2ccc(C(=O)O)cc2)CC1 (stereo not shown) [Example 146, 4-(5-(4-methoxypiperidin-1-yl)-2-(4-methyl-2-(pyridin-3-yl)thiazole-5-carbonyl)-1,2,3,4-tetrahydroisoquinoline-1-carboxamido)benzoic acid, 2 TFA salt] | 1200
13 | COC1CCN(c2cccc3c2CCN(C(=O)c2cc(-c4ccccc4Cl)no2)C3C(=O)Nc2ccc(C(=O)O)cc2)CC1 (stereo not shown) [Example 148, 4-(2-(3-(2-chlorophenyl)isoxazole-5-carbonyl)-5-(4-methoxypiperidin-1-yl)-1,2,3,4-tetrahydroisoquinoline-1-carboxamido)benzoic acid, TFA salt] | 69.5
14 | COC1CCN(c2cccc3c2CCN(C(=O)C2CCN(c4ccc(OC(C)C)cc4)C2=O)C3C(=O)Nc2ccc(C(=O)O)cc2)CC1 (stereo not shown) [Example 149, 4-(2-(1-(4-isopropoxyphenyl)-2-oxopyrrolidine-3-carbonyl)-5-(4-methoxypiperidin-1-yl)-1,2,3,4-tetrahydroisoquinoline-1-carboxamido)benzoic acid, TFA salt] | 7160
15 | COC1CCN(c2cccc3c2CCN(C(=O)c2cc(-c4cccc(F)c4)no2)C3C(=O)Nc2ccc(C(=O)O)cc2)CC1 (stereo not shown) [Example 152, 4-(2-(3-(3-fluorophenyl)isoxazole-5-carbonyl)-5-(4-methoxypiperidin-1-yl)-1,2,3,4-tetrahydroisoquinoline-1-carboxamido)benzoic acid, TFA salt] | 466
16 | O=C(O)c1ccc(NC(=O)C2c3cccc(-c4cccc(-c5ccn[nH]5)c4)c3CCN2C(=O)c2cn(-c3cccc(Cl)c3F)nn2)cc1 (stereo not shown) [Example 164, 4-(5-(3-(1H-pyrazol-5-yl)phenyl)-2-(1-(3-chloro-2-fluorophenyl)-1H-1,2,3-triazole-4-carbonyl)-1,2,3,4-tetrahydroisoquinoline-1-carboxamido)benzoic acid] | 9.17

The next lines start with the values.

Row | Ki [nM] | Molecule
17 | < 5 | Nc1c(C(=O)N2CCc3c(-c4cncnc4)cccc3C2C(=O)Nc2ccc(C(=O)O)cc2)cnn1-c1cccc(Cl)c1F (stereo not shown) [Example 46, 4-(2-(5-Amino-1-(3-chloro-2-fluorophenyl)-1H-pyrazole-4-carbonyl)-5-(pyrimidin-5-yl)-1,2,3,4-tetrahydroisoquinoline-1-carboxamido)benzoic acid, TFA salt]
18 | < 5 | CNC(=O)c1ccc(-c2cccc3c2CCN(C(=O)c2cnn(-c4cccc(Cl)c4F)c2N)C3C(=O)Nc2ccc(C(=O)O)cc2)cn1 (stereo not shown) [Example 47, 4-(2-(5-Amino-1-(3-chloro-2-fluorophenyl)-1H-pyrazole-4-carbonyl)-5-(6-(methylcarbamoyl)pyridin-3-yl)-1,2,3,4-tetrahydroisoquinoline-1-carboxamido)benzoic acid, TFA salt]
19 | < 5 | CC1(O)CCN(c2cccc3c2CCN(C(=O)c2cnn(-c4cccc(Cl)c4F)c2)C3C(=O)Nc2ccc(C(=O)O)cc2)CC1 (stereo not shown) [Example 68, 4-(2-(1-(3-chloro-2-fluorophenyl)-1H-pyrazole-4-carbonyl)-5-(4-hydroxy-4-methylpiperidin-1-yl)-1,2,3,4-tetrahydroisoquinoline-1-carboxamido)benzoic acid, TFA salt]
20 | < 5 | O=C(O)c1ccc(NC(=O)C2c3cccc(N4CCC(O)CC4)c3CCN2C(=O)c2cn(-c3cccc(Cl)c3F)nn2)cc1 (stereo not shown) [Example 85, 4-(2-(1-(3-chloro-2-fluorophenyl)-1H-1,2,3-triazole-4-carbonyl)-5-(4-hydroxypiperidin-1-yl)-1,2,3,4-tetrahydroisoquinoline-1-carboxamido)benzoic acid, TFA salt]
21 | < 5 | O=C(O)c1ccc(NC(=O)[C@@H]2c3cccc(N4CCC(O)CC4)c3CCN2C(=O)c2cn(-c3cccc(Cl)c3F)nn2)cc1 [Example 86, (S)-4-(2-(1-(3-chloro-2-fluorophenyl)-1H-1,2,3-triazole-4-carbonyl)-5-(4-hydroxypiperidin-1-yl)-1,2,3,4-tetrahydroisoquinoline-1-carboxamido)benzoic acid, TFA salt]
22 | < 5 | NCc1ccc(-c2cccc3c2CCN(C(=O)c2cn(-c4cccc(Cl)c4F)nn2)C3C(=O)Nc2ccc(C(=O)O)cc2)cc1 (stereo not shown) [Example 163, 4-(5-(4-(aminomethyl)phenyl)-2-(1-(3-chloro-2-fluorophenyl)-1H-1,2,3-triazole-4-carbonyl)-1,2,3,4-tetrahydroisoquinoline-1-carboxamido)benzoic acid, TFA salt]
23 | < 5 | O=C(O)c1ccc(NC(=O)C2c3cccc(C4=CCOCC4)c3CCN2C(=O)c2cn(-c3cccc(Cl)c3F)nn2)cc1 (stereo not shown) [Example 165, 4-(2-(1-(3-chloro-2-fluorophenyl)-1H-1,2,3-triazole-4-carbonyl)-5-(3,6-dihydro-2H-pyran-4-yl)-1,2,3,4-tetrahydroisoquinoline-1-carboxamido)benzoic acid]
24 | < 5 | CNC(=O)c1ccc(-c2cccc3c2CCN(C(=O)c2cn(-c4cccc(Cl)c4F)nn2)C3C(=O)Nc2ccc(C(=O)O)cc2)cn1 (stereo not shown) [Example 166, 4-(2-(1-(3-chloro-2-fluorophenyl)-1H-1,2,3-triazole-4-carbonyl)-5-(6-(methylcarbamoyl)pyridin-3-yl)-1,2,3,4-tetrahydroisoquinoline-1-carboxamido)benzoic acid, TFA salt]
25 | < 5 | Cn1ncc2c(-c3cccc4c3CCN(C(=O)c3cn(-c5cccc(Cl)c5F)nn3)C4C(=O)Nc3ccc(C(=O)O)cc3)cccc21 (stereo not shown) [Example 169, 4-(2-(1-(3-chloro-2-fluorophenyl)-1H-1,2,3-triazole-4-carbonyl)-5-(1-methyl-1H-indazol-4-yl)-1,2,3,4-tetrahydroisoquinoline-1-carboxamido)benzoic acid]
